Test results published in patent EP4635500A1, “THERAPEUTIC AGENT FOR BACTERIAL INFECTION” (Sumitomo Pharma Co., Ltd., priority 2022, dated 2024).
Values after ≈ are worked out from the molar mass of the structure shown. Read-outs that look alike come from different tables or passages of the source.

Assays:
53 CRE and CPE strains = assay: MICrange, MIC50, MIC80, MIC90 for 53 bacterial isolates (Example 5, Table 5); assay type: cell-based; conditions: 53 bacterial isolates
P. aeruginosa = assay: MIC, broth microdilution, CDC/FDA Antibiotic Resistance Isolate Bank (Example 7, Tables 10, 15); assay type: cell-based; conditions: for MIC: Pseudomonas aeruginosa, read-out: MIC
[1] = 26 metallo-carbapenemase-producing P. aeruginosa strains, β-lactamase inhibitor µg/mL in parentheses
[2] = 96 strains of P. aeruginosa, β-lactamase inhibitor µg/mL in parentheses

## NCC[C@H](O)C(=O)N[C@@H]1C[C@H](N)[C@@H](O[C@H]2O[C@H](CN)[C@@H](O)[C@H](O)[C@H]2O)[C@H](O)[C@H]1O[C@H]1O[C@H](CO)[C@@H](O)[C@H](N)[C@H]1O [Amikacin, amikacin]
53 CRE and CPE strains; read-out: MIC50
  MIC50: 2 µg/mL (≈ 3.42 µM)
53 CRE and CPE strains; read-out: MIC80
  MIC80: 32 µg/mL (≈ 54.6 µM)
53 CRE and CPE strains; read-out: MIC90
  MIC90: > 64 µg/mL
P. aeruginosa; [1]
  MIC against 26 metallo-carbapenemase-producing strains MIC50: >64 µg(mL)
  MIC against 26 metallo-carbapenemase-producing strains MIC90: >64 µg(mL)
P. aeruginosa; [2]
  MIC against 96 strains of P. aeruginosa MIC50: 8 µg(mL)
  MIC against 96 strains of P. aeruginosa MIC90: >64 µg(mL)
P. aeruginosa; P. aeruginosa KUB No. 579, AR Bank # 447
  MIC: 8 µg/mL (≈ 13.7 µM)
P. aeruginosa; P. aeruginosa KUB No. 5083, AR Bank # 250
  MIC: > 64 µg/mL
P. aeruginosa; P. aeruginosa KUB No. 5551, AR Bank # 54
  MIC: 4 µg/mL (≈ 6.83 µM)
P. aeruginosa; P. aeruginosa KUB No. 5561, AR Bank # 64
  MIC: 1 µg/mL (≈ 1.71 µM)
P. aeruginosa; P. aeruginosa KUB No. 5587, AR Bank # 90
  MIC: 32 µg/mL (≈ 54.6 µM)
P. aeruginosa; P. aeruginosa KUB No. 5589, AR Bank # 92
  MIC: > 64 µg/mL
P. aeruginosa; P. aeruginosa KUB No. 5591, AR Bank # 94
  MIC: 32 µg/mL (≈ 54.6 µM)
P. aeruginosa; P. aeruginosa KUB No. 5592, AR Bank # 95
  MIC: 0.5 µg/mL (≈ 0.854 µM)
P. aeruginosa; P. aeruginosa KUB No. 5597, AR Bank # 100
  MIC: > 64 µg/mL
P. aeruginosa; P. aeruginosa KUB No. 5600, AR Bank # 103
  MIC: 32 µg/mL (≈ 54.6 µM)
P. aeruginosa; P. aeruginosa KUB No. 5602, AR Bank # 105
  MIC: 8 µg/mL (≈ 13.7 µM)
P. aeruginosa; P. aeruginosa KUB No. 5605, AR Bank # 108
  MIC: > 64 µg/mL
P. aeruginosa; P. aeruginosa KUB No. 5607, AR Bank # 110
  MIC: > 64 µg/mL
P. aeruginosa; P. aeruginosa KUB No. 5608, AR Bank # 111
  MIC: > 64 µg/mL
P. aeruginosa; P. aeruginosa KUB No. 5662, AR Bank # 229
  MIC: 16 µg/mL (≈ 27.3 µM)
P. aeruginosa; P. aeruginosa KUB No. 5663, AR Bank # 230
  MIC: > 64 µg/mL
P. aeruginosa; P. aeruginosa KUB No. 5664, AR Bank # 231
  MIC: 8 µg/mL (≈ 13.7 µM)
P. aeruginosa; P. aeruginosa KUB No. 5665, AR Bank # 232
  MIC: 8 µg/mL (≈ 13.7 µM)
P. aeruginosa; P. aeruginosa KUB No. 5666, AR Bank # 23
  MIC: 4 µg/mL (≈ 6.83 µM)
P. aeruginosa; P. aeruginosa KUB No. 5667, AR Bank # 234
  MIC: 8 µg/mL (≈ 13.7 µM)
P. aeruginosa; P. aeruginosa KUB No. 5668, AR Bank # 235
  MIC: 64 µg/mL (≈ 109 µM)
P. aeruginosa; P. aeruginosa KUB No. 5669, AR Bank # 236
  MIC: 8 µg/mL (≈ 13.7 µM)
P. aeruginosa; P. aeruginosa KUB No. 5670, AR Bank # 237
  MIC: 2 µg/mL (≈ 3.42 µM)
P. aeruginosa; P. aeruginosa KUB No. 5671, AR Bank # 238
  MIC: 4 µg/mL (≈ 6.83 µM)
P. aeruginosa; P. aeruginosa KUB No. 5672, AR Bank # 239
  MIC: > 64 µg/mL
P. aeruginosa; P. aeruginosa KUB No. 5673, AR Bank # 240
  MIC: 64 µg/mL (≈ 109 µM)
P. aeruginosa; P. aeruginosa KUB No. 5674, AR Bank # 241
  MIC: 32 µg/mL (≈ 54.6 µM)
P. aeruginosa; P. aeruginosa KUB No. 5675, AR Bank # 242
  MIC: 64 µg/mL (≈ 109 µM)
P. aeruginosa; P. aeruginosa KUB No. 5676, AR Bank # 243
  MIC: 32 µg/mL (≈ 54.6 µM)
P. aeruginosa; P. aeruginosa KUB No. 5677, AR Bank # 244
  MIC: 8 µg/mL (≈ 13.7 µM)
P. aeruginosa; P. aeruginosa KUB No. 5678, AR Bank # 245
  MIC: > 64 µg/mL
P. aeruginosa; P. aeruginosa KUB No. 5679, AR Bank # 246
  MIC: > 64 µg/mL
P. aeruginosa; P. aeruginosa KUB No. 5680, AR Bank # 247
  MIC: 4 µg/mL (≈ 6.83 µM)
P. aeruginosa; P. aeruginosa KUB No. 5681, AR Bank # 248
  MIC: 64 µg/mL (≈ 109 µM)
P. aeruginosa; P. aeruginosa KUB No. 5682, AR Bank # 249
  MIC: > 64 µg/mL
P. aeruginosa; P. aeruginosa KUB No. 5684, AR Bank # 251
  MIC: 8 µg/mL (≈ 13.7 µM)
P. aeruginosa; P. aeruginosa KUB No. 5685, AR Bank # 252
  MIC: 0.5 µg/mL (≈ 0.854 µM)
P. aeruginosa; P. aeruginosa KUB No. 5687, AR Bank # 254
  MIC: > 64 µg/mL
P. aeruginosa; P. aeruginosa KUB No. 5688, AR Bank # 255
  MIC: > 64 µg/mL
P. aeruginosa; P. aeruginosa KUB No. 5689, AR Bank # 256
  MIC: 2 µg/mL (≈ 3.42 µM)
P. aeruginosa; P. aeruginosa KUB No. 5690, AR Bank # 257
  MIC: 8 µg/mL (≈ 13.7 µM)
P. aeruginosa; P. aeruginosa KUB No. 5691, AR Bank # 258
  MIC: 4 µg/mL (≈ 6.83 µM)
P. aeruginosa; P. aeruginosa KUB No. 5692, AR Bank # 259
  MIC: 2 µg/mL (≈ 3.42 µM)
P. aeruginosa; P. aeruginosa KUB No. 5693, AR Bank # 260
  MIC: 64 µg/mL (≈ 109 µM)
P. aeruginosa; P. aeruginosa KUB No. 5694, AR Bank # 261
  MIC: 16 µg/mL (≈ 27.3 µM)
P. aeruginosa; P. aeruginosa KUB No. 5695, AR Bank # 262
  MIC: 4 µg/mL (≈ 6.83 µM)
P. aeruginosa; P. aeruginosa KUB No. 5696, AR Bank # 263
  MIC: 32 µg/mL (≈ 54.6 µM)
P. aeruginosa; P. aeruginosa KUB No. 5697, AR Bank # 264
  MIC: 2 µg/mL (≈ 3.42 µM)
P. aeruginosa; P. aeruginosa KUB No. 5698, AR Bank # 265
  MIC: 8 µg/mL (≈ 13.7 µM)
P. aeruginosa; P. aeruginosa KUB No. 5699, AR Bank # 266
  MIC: 8 µg/mL (≈ 13.7 µM)
P. aeruginosa; P. aeruginosa KUB No. 5700, AR Bank # 267
  MIC: 16 µg/mL (≈ 27.3 µM)
P. aeruginosa; P. aeruginosa KUB No. 5701, AR Bank # 268
  MIC: 8 µg/mL (≈ 13.7 µM)
P. aeruginosa; P. aeruginosa KUB No. 5702, AR Bank # 269
  MIC: 4 µg/mL (≈ 6.83 µM)
P. aeruginosa; P. aeruginosa KUB No. 5703, AR Bank # 270
  MIC: 16 µg/mL (≈ 27.3 µM)
P. aeruginosa; P. aeruginosa KUB No. 5704, AR Bank # 271
  MIC: 4 µg/mL (≈ 6.83 µM)
P. aeruginosa; P. aeruginosa KUB No. 5705, AR Bank # 272
  MIC: 4 µg/mL (≈ 6.83 µM)
P. aeruginosa; P. aeruginosa KUB No. 5747, AR Bank # 351
  MIC: 64 µg/mL (≈ 109 µM)
P. aeruginosa; P. aeruginosa KUB No. 5748, AR Bank # 352
  MIC: 4 µg/mL (≈ 6.83 µM)
P. aeruginosa; P. aeruginosa KUB No. 5749, AR Bank # 353
  MIC: 64 µg/mL (≈ 109 µM)
P. aeruginosa; P. aeruginosa KUB No. 5750, AR Bank # 354
  MIC: 8 µg/mL (≈ 13.7 µM)
P. aeruginosa; P. aeruginosa KUB No. 5751, AR Bank # 355
  MIC: 8 µg/mL (≈ 13.7 µM)
P. aeruginosa; P. aeruginosa KUB No. 5752, AR Bank # 356
  MIC: 2 µg/mL (≈ 3.42 µM)
P. aeruginosa; P. aeruginosa KUB No. 5753, AR Bank # 357
  MIC: > 64 µg/mL
P. aeruginosa; P. aeruginosa KUB No. 5754, AR Bank # 358
  MIC: 4 µg/mL (≈ 6.83 µM)
P. aeruginosa; P. aeruginosa KUB No. 5755, AR Bank # 359
  MIC: 4 µg/mL (≈ 6.83 µM)
P. aeruginosa; P. aeruginosa KUB No. 5756, AR Bank # 360
  MIC: 4 µg/mL (≈ 6.83 µM)
P. aeruginosa; P. aeruginosa KUB No. 5785, AR Bank # 439
  MIC: > 64 µg/mL
P. aeruginosa; P. aeruginosa KUB No. 5786, AR Bank # 440
  MIC: 8 µg/mL (≈ 13.7 µM)
P. aeruginosa; P. aeruginosa KUB No. 5787, AR Bank # 441
  MIC: 2 µg/mL (≈ 3.42 µM)
P. aeruginosa; P. aeruginosa KUB No. 5788, AR Bank # 443
  MIC: 64 µg/mL (≈ 109 µM)
P. aeruginosa; P. aeruginosa KUB No. 5789, AR Bank # 444
  MIC: > 64 µg/mL
P. aeruginosa; P. aeruginosa KUB No. 5790, AR Bank # 445
  MIC: 64 µg/mL (≈ 109 µM)
P. aeruginosa; P. aeruginosa KUB No. 5793, AR Bank # 449
  MIC: 8 µg/mL (≈ 13.7 µM)
P. aeruginosa; P. aeruginosa KUB No. 5798, AR Bank # 455
  MIC: 0.25 µg/mL (≈ 0.427 µM)
P. aeruginosa; P. aeruginosa KUB No. 5799, AR Bank # 456
  MIC: 8 µg/mL (≈ 13.7 µM)
P. aeruginosa; P. aeruginosa KUB No. 5800, AR Bank # 457
  MIC: 2 µg/mL (≈ 3.42 µM)
P. aeruginosa; P. aeruginosa KUB No. 5801, AR Bank # 458
  MIC: 16 µg/mL (≈ 27.3 µM)
P. aeruginosa; P. aeruginosa KUB No. 5802, AR Bank # 459
  MIC: 8 µg/mL (≈ 13.7 µM)
P. aeruginosa; P. aeruginosa KUB No. 5804, AR Bank # 862
  MIC: 4 µg/mL (≈ 6.83 µM)
P. aeruginosa; P. aeruginosa KUB No. 5805, AR Bank # 863
  MIC: > 64 µg/mL
P. aeruginosa; P. aeruginosa KUB No. 5806, AR Bank # 864
  MIC: 0.5 µg/mL (≈ 0.854 µM)
P. aeruginosa; P. aeruginosa KUB No. 5813, AR Bank # 508
  MIC: 0.064 µg/mL (≈ 0.109 µM)
P. aeruginosa; P. aeruginosa KUB No. 5814, AR Bank # 509
  MIC: > 0.064 µg/mL
P. aeruginosa; P. aeruginosa KUB No. 5815, AR Bank # 510
  MIC: 0.008 µg/mL (≈ 0.0137 µM)
P. aeruginosa; P. aeruginosa KUB No. 5816, AR Bank # 511
  MIC: 0.004 µg/mL (≈ 0.00683 µM)
P. aeruginosa; P. aeruginosa KUB No. 5817, AR Bank # 512
  MIC: 0.004 µg/mL (≈ 0.00683 µM)
P. aeruginosa; P. aeruginosa KUB No. 5818, AR Bank # 513
  MIC: 0.032 µg/mL (≈ 0.0546 µM)
P. aeruginosa; P. aeruginosa KUB No. 5819, AR Bank # 514
  MIC: 0.004 µg/mL (≈ 0.00683 µM)
P. aeruginosa; P. aeruginosa KUB No. 5820, AR Bank # 515
  MIC: 0.008 µg/mL (≈ 0.0137 µM)
P. aeruginosa; P. aeruginosa KUB No. 5821, AR Bank # 516
  MIC: 0.002 µg/mL (≈ 0.00342 µM)
P. aeruginosa; P. aeruginosa KUB No. 5823, AR Bank # 518
  MIC: 0.016 µg/mL (≈ 0.0273 µM)
P. aeruginosa; P. aeruginosa KUB No. 5831, AR Bank # 526
  MIC: 0.004 µg/mL (≈ 0.00683 µM)
P. aeruginosa; P. aeruginosa KUB No. 5832, AR Bank # 527
  MIC: 0.0005 µg/mL (≈ 0.000854 µM)
P. aeruginosa; P. aeruginosa KUB No. 5833, AR Bank # 528
  MIC: 0.008 µg/mL (≈ 0.0137 µM)
P. aeruginosa; P. aeruginosa KUB No. 5834, AR Bank # 529
  MIC: 0.004 µg/mL (≈ 0.00683 µM)
